Results published in patent US12319655B2, “RAF kinase inhibitors and methods of use thereof” (Deciphera Pharmaceuticals, LLC, priority 2021, dated 2025).

Key:
[1] = biological target: B-Raf kinase (SEQ. ID NO: 2) (Homo sapiens (Human), UniProt P15056); assay: Biochemical Assay for B-Raf (1); conditions: Table J, assay version (1); read-out: BRAF (1) IC50
Summary of the method: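 Continuous PK/LDH-coupled NADH oxidation assay, A340 read for 6 h at 30° C., with 0.13 nM B-Raf, 30.1 nM MEK substrate and 1 mM ATP in Tris pH 7.5, MgCl2, DTT, detergents, 1% DMSO. Rate taken from 4–5 h window; percent inhibition vs no-compound and known-inhibitor controls; four-parameter fit gives IC50.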

H2405 cells = assay: H2405 Cell Proliferation Assay (1); assay type: cell-based; conditions: Homo sapiens, NCI-H2405
Experimental: H2405 Cell Proliferation Assay (1)
(§1) H2405 cells (catalog #CRL-5994) are obtained from the American Type Culture Collect (ATTC, Manassas, VA). Briefly, cells were grown in RPMI 1640 supplemented with 5% characterized fetal bovine serum (Invitrogen, Carlsbad, CA) and 1% Penicillin/Streptomycin/L-Glutamine at 37° C., 5% CO2, and 95% humidity. Cells are expanded until reaching 70-95% confluency at which point they are sub-cultured or harvested for assay use. A serial dilution of test compound is dispensed into a 96-well black clear bottom plate in triplicate. Three thousand cells are added per well in 200 μL complete growth medium in the 96-well plate. Plates are incubated for 67-72 h at 37° C., 5% CO2, and 95% humidity. At the end of the incubation, 40 μL of a 440 μM solution of resazurin (Sigma, St. Louis, MO) in PBS is added to each well of the plate and plates are incubated for an additional 5-6 h at 37° C., 5% CO2, and 95% humidity. Plates are read on a Synergy2 or equivalent reader (Biotek, Winooski VT) using an excitation of 540 nm and an emission of 600 nm. Data is analyzed using Prism software (GraphPad, San Diego, CA) to calculate IC50 values.

[2] = biological target: A-Raf kinase (SEQ. ID No: 1) (Homo sapiens (Human), UniProt P10398, Y301D/Y302D); assay: Biochemical Assay for A-Raf (1); conditions: Table J, assay version (1); read-out: ARAF (1) IC50
Summary of the method: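 A-Raf Y301D/Y302D at 5.55 nM phosphorylates 30.1 nM MEK with 1 mM ATP in pH 7.5 Tris buffer, 1% DMSO. Activity was read continuously as NADH oxidation at 340 nm in a pyruvate kinase/lactate dehydrogenase coupled system for 6 h at 30 °C. Rates from 4–5 h were converted to percent inhibition, and IC50 came from a four-parameter fit.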

[3] = biological target: C-Raf kinase (SEQ. ID NO: 3) (Homo sapiens (Human), UniProt P04049, Y340D/Y341D); assay: Biochemical Assay for C-Raf (1); conditions: Table J, assay version (1); read-out: CRAF (1) IC50
Summary of the method: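 Coupled pyruvate kinase/LDH assay tracking NADH oxidation at 340 nm, with 0.43 nM C-Raf, 30.1 nM MEK and 1 mM ATP in pH 7.5 Tris buffer (15 mM MgCl2, 1% DMSO final). Read continuously for 6 h at 30 °C, rate taken from the 4–5 h window. IC50 from four-parameter fit of percent inhibition.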

A375 cells = assay: A375 Cell Proliferation Assay (1); assay type: cell-based; conditions: Homo sapiens, A-375
Experimental: A375 Cell Proliferation Assay (1)
as §1, with “A375 cells” for “H2405 cells”, “(catalog (#CRL-1619)” for “(catalog #CRL-5994)”, “in DMEM High Glucose” for “in RPMI 1640”, “with 10%” for “with 5%”, “triplicate. Two” for “triplicate. Three”, “thousand five hundred” for “thousand”

Miapaca-2 cells [4] = assay: MiaPaca-2 Cell Proliferation Assay (1); assay type: cell-based; conditions: Homo sapiens, MIA PaCa-2, single agent, read-out: MiaPaca2 (1) IC50
Experimental: MiaPaca-2 Cell Proliferation Assay (1)
as §1, with “Miapaca-2 cells” for “H2405 cells”, “(catalog #CRL-1420)” for “(catalog #CRL-5994)”, “in DMEM” for “in RPMI 1640”, “with 10%” for “with 5%”, “Carlsbad, CA), 2.5% New Zealand sourced horse serum” for “Carlsbad, CA)”

WM3928 cells = assay: WM3928 Cell Proliferation Assay (1); assay type: cell-based
Experimental: WM3928 Cell Proliferation Assay (1)
WM3928 cells (#WM3928-01-0001) are obtained from Rockland Immunochemicals Inc (Gilbertsville, PA). Briefly, cells were grown in MCDB 153 medium (Sigma, #M7403, St. Louis, MO) supplemented with 20% Leibovitz's L-15 (ThermoFisher #11415-064, Waltham, MA), 2% heat inactivated fetal bovine serum (ThermoFisher, #A3840001, Waltham, MA), 5 μg/mL Insulin (Bovine Pancreas) (Sigma, #I0516, St. Louis, MO), 1.68 mM Calcium Chloride (Sigma, #C-34006, St. Louis, MO) and 1% Penicillin/Streptomycin/L-Glutamine (ThermoFisher #10378016, Waltham, MA) at 37° C., 5% CO2, and 95% humidity. Cells are expanded until reaching 70-95% confluency at which point they are subcultured or harvested for assay use. A serial dilution of test compound is dispensed into a 96-well black clear bottom plate in triplicate. Three thousand cells are added per well in 200 μL complete growth medium in the 96-well plate. Plates are incubated for 67-72 hours at 37° C., 5% CO2, and 95% humidity. At the end of the incubation, 40 μL of a 440 μM solution of resazurin (Sigma, #199303, St. Louis, MO) in PBS is added to each well of the plate and plates are incubated for an additional 6-7 hours at 37° C., 5% CO2, and 95% humidity. Plates are read on a Synergy2 or equivalent reader (Biotek, Winooski VT) using an excitation of 540 nm and an emission of 600 nm. Data is analyzed using Prism software (GraphPad, San Diego, CA) to calculate IC50 values.

[5] = biological target: B-Raf (V600E) (SEQ. ID NO: 4) kinase (Homo sapiens (Human), UniProt P15056, V600E); assay: Biochemical Assay for B-Raf (V600E) (1); conditions: Table J, BRAF V600E, assay version (1); read-out: BRAF VE (1) IC50
Summary of the method: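 Coupled pyruvate kinase/lactate dehydrogenase assay: 0.03 nM B-Raf V600E, 30.1 nM MEK, 1 mM ATP, pH 7.5 Tris/MgCl2 buffer, 1% DMSO. NADH oxidation followed at 340 nm for 6 h at 30 °C; rate from 3–4 h converted to percent inhibition, IC50 by four-parameter fit.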

Miapaca-2 cells [6] = assay: MiaPaca-2 Combination Cell proliferation Assay (1) with cobimetinib; assay type: cell-based; conditions: MiaPaca-2 cell proliferation, read-out: MiaPaca-2 Combo (1) IC50
Experimental: MiaPaca-2 Combination Cell proliferation Assay (1)
Miapaca-2 cells (catalog #CRL-1420) are obtained from the American Type Culture Collect (ATCC, Manassas, VA). Briefly, cells were grown in DMEM supplemented with 10% characterized fetal bovine serum (Invitrogen, Carlsbad, CA), 2.5% New Zealand sourced horse serum and 1% Penicillin/Streptomycin/L-Glutamine at 37° C., 5% CO2, and 95% humidity. Cells are expanded until reaching 70-95% confluency at which point they are subcultured or harvested for assay use. A serial dilution of test compound was dispensed into multiple 96-well black clear bottom plates in triplicate. A serial dilution of complete growth medium containing cobimetinib was prepared at twice the final concentration and 100 μL was dispensed across the test compound titration in triplicate. Three thousand cells are added per well in 100 μL complete growth medium in each 96-well plate. Plates are incubated for 67-72 hours at 37° C., 5% CO2, and 95% humidity. At the end of the incubation, 40 μL of a 440 μM solution of resazurin (Sigma, St. Louis, MO) in PBS is added to each well of the plate and plates are incubated for an additional 5-7 hours at 37° C., 5% CO2, and 95% humidity. Plates are read on a Synergy2 or equivalent reader (Biotek, Winooski VT) using an excitation of 540 nm and an emission of 600 nm. Drug synergy was assessed via BLISS analysis in the Combenefit software (Cancer Research UK Cambridge Institute, Cambridge, UK). Data is analyzed using Prism software (Graphpad, San Diego, CA) to calculate IC50 values. Shifts in test compound IC50 values are reported from top-constrained combination therapy curves.

C-Raf kinase (SEQ. ID NO: 3), sequence (P04049 307-648 Y340D/Y341D): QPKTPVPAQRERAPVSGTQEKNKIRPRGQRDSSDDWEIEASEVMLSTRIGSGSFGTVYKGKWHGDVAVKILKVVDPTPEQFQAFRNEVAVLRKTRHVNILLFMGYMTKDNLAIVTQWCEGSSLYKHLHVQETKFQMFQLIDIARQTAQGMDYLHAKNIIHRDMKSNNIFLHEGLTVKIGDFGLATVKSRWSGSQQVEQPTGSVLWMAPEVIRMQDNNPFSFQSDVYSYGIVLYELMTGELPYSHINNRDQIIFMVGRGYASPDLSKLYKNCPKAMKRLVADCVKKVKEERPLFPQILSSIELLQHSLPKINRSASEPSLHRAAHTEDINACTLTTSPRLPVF
B-Raf kinase (SEQ. ID NO: 2), sequence (P15056 416-766): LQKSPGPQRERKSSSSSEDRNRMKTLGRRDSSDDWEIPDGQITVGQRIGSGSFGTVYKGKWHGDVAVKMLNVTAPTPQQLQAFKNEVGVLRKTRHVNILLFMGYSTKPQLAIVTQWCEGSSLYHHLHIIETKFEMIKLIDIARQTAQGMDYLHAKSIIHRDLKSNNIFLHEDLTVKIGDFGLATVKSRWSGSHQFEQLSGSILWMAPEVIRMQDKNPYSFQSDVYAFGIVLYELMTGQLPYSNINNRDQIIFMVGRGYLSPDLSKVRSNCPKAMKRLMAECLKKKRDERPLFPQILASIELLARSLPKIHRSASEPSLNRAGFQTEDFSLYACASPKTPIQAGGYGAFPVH
A-Raf kinase (SEQ. ID No: 1), sequence (P10398 other isoform, or with tags, fused parts or gaps Y301D (already in the parent)/Y302D (already in the parent)): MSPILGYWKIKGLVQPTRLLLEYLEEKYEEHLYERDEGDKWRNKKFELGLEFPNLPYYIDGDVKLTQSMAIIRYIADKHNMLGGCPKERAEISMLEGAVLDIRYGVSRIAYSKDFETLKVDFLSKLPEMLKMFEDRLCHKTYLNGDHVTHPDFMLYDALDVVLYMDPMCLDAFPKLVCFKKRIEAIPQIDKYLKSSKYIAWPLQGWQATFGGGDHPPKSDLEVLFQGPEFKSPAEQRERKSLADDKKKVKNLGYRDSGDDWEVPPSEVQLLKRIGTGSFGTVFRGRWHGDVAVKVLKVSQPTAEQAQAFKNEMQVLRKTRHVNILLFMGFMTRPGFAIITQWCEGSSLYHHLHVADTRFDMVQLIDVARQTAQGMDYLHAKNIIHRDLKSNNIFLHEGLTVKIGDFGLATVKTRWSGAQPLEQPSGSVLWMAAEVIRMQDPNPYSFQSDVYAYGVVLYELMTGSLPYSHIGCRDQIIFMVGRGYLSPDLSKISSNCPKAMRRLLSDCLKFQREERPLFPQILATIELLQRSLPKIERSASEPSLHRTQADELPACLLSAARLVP
B-Raf (V600E) (SEQ. ID NO: 4) kinase, sequence (P15056 416-766 V600E): as the sequence (P15056 416-766) above, with V185E counted along it

SMILES	IC50 [1]	IC50 (H2405 cells)	IC50 [2]	IC50 [3]	IC50 (A375 cells)	IC50 (Miapaca-2 cells [4])	IC50 [5]	IC50 (Miapaca-2 cells [6])	IC50 (WM3928 cells)
Cc1ccc(NC(=O)c2ccnc(C(F)(F)F)c2)cc1-c1cc(-c2ccnc(N)c2)n(C)c(=O)c1 [Example 53]	0.5 to 1 µM	1 to 10 µM	1 to 10 µM	0.1 to 0.5 µM	1 to 10 µM	–	–	–	–
Cc1ccc(NC(=O)c2ccnc(C(C)(C)C#N)c2)cc1-c1ccnc(-c2ccncc2)c1 [Example 55]	–	–	1 to 10 µM	–	0.5 to 1 µM	1 to 10 µM	–	–	–
Cc1ccc(NC(=O)c2ccnc(C(F)(F)F)c2)cc1-c1cccc(-c2ccnc(NC(=O)C3CC3)c2)c1 [Example 58]	–	≤ 0.1 µM	1 to 10 µM	–	0.1 to 0.5 µM	1 to 10 µM	–	–	0.1 to 0.5 µM
Cc1ccc(NC(=O)c2ccnc(C(C)(C)C#N)c2)cc1-c1cccc(-c2cc(NC(=O)C(C)(C)C)ncn2)c1 [Example 210]	0.5 to 1 µM	–	1 to 10 µM	0.5 to 1 µM	–	–	≤ 0.1 µM	0.1 to 0.5 µM	–

Continued, in another order:

IC50 [1]	IC50 (H2405 cells)	IC50 [2]	IC50 [3]	IC50 (A375 cells)	IC50 (Miapaca-2 cells [4])	IC50 [5]	IC50 (Miapaca-2 cells [6])	SMILES	IC50 (WM3928 cells)
0.1 to 0.5 µM	1 to 10 µM	1 to 10 µM	0.1 to 0.5 µM	1 to 10 µM	–	–	–	CNc1cc(-c2cccc(-c3cc(NC(=O)c4ccnc(C(C)(C)C#N)c4)cnc3C)c2)ncn1 [Example 227]	–
–	0.1 to 0.5 µM	–	–	1 to 10 µM	1 to 10 µM	–	–	Cc1ccc(NC(=O)c2cc(C3CC3)n(C)n2)cc1-c1ccnc(-c2ccnc(NC(=O)C3CC3)c2)n1 [Example 236]	0.5 to 1 µM
–	0.1 to 0.5 µM	–	–	≤ 0.1 µM	1 to 10 µM	–	0.1 to 0.5 µM	COC(=O)Nc1cc(-c2cncc(-c3cc(NC(=O)c4ccnc(C(C)(F)F)c4)ccc3C)c2)ncn1 [Example 238]	≤ 0.1 µM
–	0.1 to 0.5 µM	1 to 10 µM	–	1 to 10 µM	1 to 10 µM	–	–	Cc1ccc(NC(=O)c2cnnc(C3CC3)c2)cc1-c1nccc(-c2ccnc(NC(=O)C3CC3)c2)n1 [Example 272]	0.1 to 0.5 µM
